Measurements taken from the supplement of paper PMC13380429.

Key:
Details in all cases: 72 h
[1] = tested on: Caco-2; test: relative viability EC50 (midpoint between 100% and the lowest measured viability); higher = less toxic
[2] = tested on: Calu-3; test: as above
[3] = tested on: Vero E6; test: as above
[4] = tested on: HepG2; test: as above
[5] = tested on: U2OS; test: as above
[6] = tested on: Caco-2; test: drug sensitivity score (DSS) for viability; higher = more toxic; extreme values may be limits of the assay
[7] = tested on: Calu-3; test: as above
[8] = tested on: Vero E6; test: as above
[9] = tested on: HepG2; test: as above
[10] = tested on: U2OS; test: as above
[11] = tested on: Caco-2; test: cell viability relative to DMSO; higher = less toxic
[12] = tested on: Calu-3; test: as above
[13] = tested on: Vero E6; test: as above
[14] = tested on: HepG2; test: as above
[15] = tested on: U2OS; test: as above

SMILES | relative viability EC50 [1] | relative viability EC50 [2] | relative viability EC50 [3] | relative viability EC50 [4] | relative viability EC50 [5] | drug sensitivity score [6] | drug sensitivity score [7] | drug sensitivity score [8] | drug sensitivity score [9] | drug sensitivity score [10] | cell viability ([11]; 1 nM) | cell viability ([11]; 10 nM) | cell viability ([11]; 100 nM) | cell viability ([11]; 1000 nM) | cell viability ([11]; 10000 nM) | cell viability ([12]; 1 nM) | cell viability ([12]; 10 nM) | cell viability ([12]; 100 nM) | cell viability ([12]; 1000 nM) | cell viability ([12]; 10000 nM) | cell viability ([13]; 1 nM) | cell viability ([13]; 10 nM) | cell viability ([13]; 100 nM) | cell viability ([13]; 1000 nM) | cell viability ([13]; 10000 nM) | cell viability ([14]; 1 nM) | cell viability ([14]; 10 nM) | cell viability ([14]; 100 nM) | cell viability ([14]; 1000 nM) | cell viability ([14]; 10000 nM) | cell viability ([15]; 1 nM) | cell viability ([15]; 10 nM) | cell viability ([15]; 100 nM) | cell viability ([15]; 1000 nM) | cell viability ([15]; 10000 nM)
COC(=O)C(Cc1ccc(OCCn2c(=O)sc3cc(C(=O)c4ccccc4)ccc32)cc1)C(=O)OC | > 10 µM | > 10 µM | > 10 µM | > 10 µM | > 10 µM | 0 | 0 | 2.1 | 0 | 0 | 100% | 93% | 101% | 109% | 101% | 94.4% | 109% | 97.7% | 104% | 118% | 93.7% | 96.7% | 89.2% | 81.6% | 85.5% | 95.5% | 101% | 98.7% | 95.1% | 102% | 100% | 95.1% | 95.6% | 106% | 105%
COc1c(C)cnc(Cn2cc(C#CCC(C)(C)O)c3c(Cl)nc(N)nc32)c1C [EC-144] | 0.189 µM | 0.152 µM | 0.413 µM | 0.0735 µM | 0.319 µM | 14.2 | 13.6 | 11.3 | 25.6 | 17.3 | 105% | 97.3% | 88.8% | 33.1% | 39.9% | 104% | 108% | 84.3% | 39.4% | 49.5% | 99.3% | 102% | 105% | 37.3% | 32.8% | 96.4% | 103% | 32.3% | 1.2% | 1.3% | 110% | 107% | 94.5% | 9.2% | 3.5%
Cn1c2c(c3ccccc31)CCNCC2 | > 10 µM | > 10 µM | > 10 µM | > 10 µM | > 10 µM | 0 | 0 | 0 | 0 | 0 | 109% | 98.6% | 102% | 97.9% | 97.1% | 96.7% | 101% | 99.3% | 103% | 96.8% | 102% | 103% | 104% | 108% | 99.6% | 93% | 98.3% | 93.1% | 103% | 98.4% | 100% | 94.4% | 98.3% | 95.9% | 104%
CC1(C)CC(=O)c2c(C(F)(F)F)nn(-c3ccc(C(N)=O)c(N[C@H]4CC[C@H](O)CC4)c3)c2C1 [SNX-2112] | 0.0844 µM | 0.0505 µM | 0.639 µM | 0.0313 µM | 0.0659 µM | 17.3 | 18.6 | 10.5 | 30.4 | 26.1 | 95.2% | 102% | 59.3% | 34.4% | 32.7% | 99.9% | 103% | 44.6% | 35.7% | 35.1% | 95.3% | 101% | 99.8% | 44.9% | 26.9% | 108% | 96.3% | 3.7% | 0.4% | 1.1% | 100% | 102% | 27.1% | 2.7% | 1.6%
Cl/C(=C\n1cncn1)c1ccc(Cl)cc1Cl [loreclezole] | > 10 µM | > 10 µM | > 10 µM | > 10 µM | > 10 µM | 0 | 0 | 0 | 0.5 | 0 | 91.1% | 92.8% | 94.6% | 95% | 104% | 100% | 94.7% | 105% | 113% | 97.6% | 101% | 102% | 98.8% | 101% | 96.2% | 96.5% | 98.9% | 104% | 90% | 87.7% | 95.9% | 100% | 96% | 99.7% | 108%
CC(C)N(CCC(C(N)=O)(c1ccccc1)c1ccccn1)C(C)C (stereo not given) [disopyramide] | > 10 µM | > 10 µM | > 10 µM | > 10 µM | > 10 µM | 0 | 0 | 0 | 0 | 0 | 94.4% | 104% | 101% | 102% | 91.8% | 101% | 93.2% | 96.3% | 96.9% | 89.7% | 102% | 101% | 96% | 97.7% | 97.5% | 105% | 86.8% | 94.7% | 91.9% | 99.4% | 103% | 102% | 100% | 99.7% | 95.7%
Nc1ccc(S(=O)(=O)Nc2ccc(Cl)nn2)cc1 [sulfachlorpyridazine] | > 10 µM | > 10 µM | > 10 µM | > 10 µM | > 10 µM | 0 | 0 | 0 | 0 | 0 | 99.6% | 93.4% | 94.8% | 106% | 106% | 109% | 91% | 98.5% | 104% | 109% | 97.8% | 95.3% | 101% | 97.1% | 103% | 93% | 105% | 105% | 108% | 107% | 98.8% | 93% | 100% | 102% | 103%
Cc1nc2ccc(NC(=O)Nc3ccnc4cccnc34)cc2o1 | > 10 µM | > 10 µM | > 10 µM | > 10 µM | > 10 µM | 1.6 | 0 | 0 | 0.8 | 0 | 94.9% | 92.2% | 98% | 89.6% | 76.1% | 102% | 103% | 94.5% | 92.7% | 90.3% | 97.6% | 98.8% | 90.9% | 102% | 93.2% | 98.9% | 102% | 94.7% | 92.8% | 80.7% | 101% | 93% | 99.3% | 96.4% | 96.4%
CN(C)c1ccc(/C=C2\CCCN=C2c2cccnc2)cc1 [DMAB-anabaseine] | > 10 µM | > 10 µM | > 10 µM | > 10 µM | > 10 µM | 0.4 | 0 | 0 | 0.1 | 0 | 103% | 107% | 103% | 120% | 76.2% | 101% | 109% | 139% | 105% | 88.8% | 105% | 92.4% | 99.3% | 93.5% | 91.5% | 109% | 90.2% | 98.2% | 99.7% | 87.4% | 94.2% | 96.4% | 97.4% | 94.4% | 93.6%
C/C(=N\c1ccccc1N)c1c(C)cc(=O)n(O)c1O [SUN-B-8155] | > 10 µM | > 10 µM | > 10 µM | > 10 µM | > 10 µM | 0 | 0 | 0 | 0.8 | 0 | 102% | 105% | 99.4% | 103% | 96.2% | 110% | 115% | 91.8% | 104% | 110% | 101% | 104% | 101% | 98.6% | 104% | 101% | 104% | 102% | 99.7% | 77.3% | 97.3% | 104% | 98.9% | 99.7% | 96.3%
NC1=N[C@@](c2cccc(-c3cncnc3)c2)(c2ccnc(C(F)F)c2)c2cccc(F)c21 [AZD3839] | > 10 µM | > 10 µM | > 10 µM | > 10 µM | > 10 µM | 0 | 0 | 0 | 0 | 0 | 107% | 102% | 101% | 96.1% | 97% | 102% | 98.4% | 99.7% | 98.7% | 109% | 110% | 106% | 99.9% | 102% | 104% | 108% | 103% | 106% | 118% | 97.3% | 95.4% | 99% | 106% | 97.9% | 94.5%
C[C@]12C=CC(=O)C=C1CC[C@@H]1[C@@H]2[C@@H](O)C[C@@]2(C)[C@H]1CC[C@]2(O)C(=O)COP(=O)(O)O [prednisolone-sodium-phosphate] | > 10 µM | > 10 µM | > 10 µM | > 10 µM | > 10 µM | 0 | 0 | 0 | 0 | 0 | 99.6% | 89.5% | 98.4% | 92.8% | 91.7% | 97.4% | 92.7% | 101% | 82.5% | 106% | 102% | 103% | 108% | 101% | 89.6% | 100% | 100% | 104% | 99.2% | 100% | 95.1% | 105% | 97.9% | 90.8% | 97%
Cc1c(C)c2c(c(C)c1O)CCC(C)(COc1ccc(CC3SC(=O)NC3=O)cc1)O2 (stereo not given) [troglitazone] | > 10 µM | > 10 µM | > 10 µM | > 10 µM | > 10 µM | 0 | 0 | 0 | 0 | 0 | 89% | 116% | 106% | 93.4% | 106% | 112% | 98.2% | 110% | 98.4% | 108% | 101% | 92.2% | 101% | 95.9% | 101% | 87.7% | 103% | 104% | 90.6% | 98.5% | 95.2% | 100% | 95% | 101% | 101%
CCOC(=O)Nc1ccc(NCc2ccc(F)cc2)nc1N [flupirtine] | > 10 µM | > 10 µM | > 10 µM | > 10 µM | > 10 µM | 0.6 | 0.5 | 0 | 0 | 0 | 106% | 102% | 99.6% | 87.7% | 96% | 105% | 113% | 98.6% | 88.2% | 91.3% | 104% | 111% | 98.2% | 98.6% | 97% | 89.2% | 101% | 103% | 98.4% | 99.8% | 100% | 99.1% | 101% | 101% | 99.5%
